The text below walks through data of US8895568B2, “Compositions comprising substituted pteridines as agrochemicals” (Dow AgroSciences LLC, priority 2009, dated 2014).

What all share (type): in vivo
The subject of one experiment is Colletotricum lagenarium. The experiment can be described thus: Cucumber Anthracnose (COLLLA), foliar spray, percent disease control. How it is done:
The activity of the compounds as effective fungicides was determined by applying the compounds to plants and observing control of fungal disease. The compounds were formulated at 200 ppm in 10 vol. % acetone plus 90 vol. % Triton X water (deionized water 99.99 wt %+0.01 wt % Triton X100), giving a “formulated test compound.” In a few cases, compounds were formulated at 75 or 8.3 ppm rather than 200 ppm in 10 vol. % acetone plus 90 vol. % Triton X water (deionized water 99.99 wt. %+0.01 wt. % Triton X100), giving a “formulated test compound.” Formulated test compounds were applied to plants using a turn table sprayer fitted with two opposing air atomization nozzles which delivered approximately 1500 L/ha of spray volume. All plants were inoculated with spores of the fungus the day after treatment, then incubated in an environment conducive to disease development. Disease severity was evaluated 4 to 15 days later, depending on the disease and the speed of disease development. The following experiments were performed in the laboratory to determine the fungicidal efficacy of the compounds of the invention. Cucumber Anthracnose (causal agent Colletotricum lagenarium; Bayer code COLLLA): Cucumber plants (variety Bush Champion) were grown from seed in a soil-less peat-based potting mixture (Metromix) until the first true leaf was 20-80% expanded. Each pot contained 1 seedling. These plants were sprayed until wet with the formulated test compound. On the following day, the leaves were inoculated with an aqueous spore suspension of Colletotricum lagenarium and the plants were kept in high humidity for one day to permit spores to germinate and infect the leaf. The plants were then transferred to a growth chamber until disease developed on untreated control plants. […] The effectiveness of the test compounds at controlling disease when sprayed on leaves was determined by assessing the severity of disease on treated plants, then converting the severity to percent control based on the level of disease on untreated, inoculated plants. Data are the level (in percent) at which the given disease was controlled when the given compound was applied to the foliage of the plants at 200 ppm. In a few cases (noted in the table) the compound was applied to the plants at 75 ppm or 8.3 ppm.

The subject of experiment [1] is Pseudoperonospora cubensis. The experiment can be described thus: Cucumber Downy Mildew (PSPECU), foliar spray, percent disease control. The conditions noted are these: read-out: PSPECU percent control. How it is done: The activity of the compounds as effective fungicides was determined by applying the compounds to plants and observing control of fungal disease. The compounds were formulated at 200 ppm in 10 vol. % acetone plus 90 vol. % Triton X water (deionized water 99.99 wt %+0.01 wt % Triton X100), giving a “formulated test compound.” In a few cases, compounds were formulated at 75 or 8.3 ppm rather than 200 ppm in 10 vol. % acetone plus 90 vol. % Triton X water (deionized water 99.99 wt. %+0.01 wt. % Triton X100), giving a “formulated test compound.” Formulated test compounds were applied to plants using a turn table sprayer fitted with two opposing air atomization nozzles which delivered approximately 1500 L/ha of spray volume. All plants were inoculated with spores of the fungus the day after treatment, then incubated in an environment conducive to disease development. Disease severity was evaluated 4 to 15 days later, depending on the disease and the speed of disease development. The following experiments were performed in the laboratory to determine the fungicidal efficacy of the compounds of the invention. Cucumber Downy Mildew (causal agent Pseudoperonospora cubensis; Bayer code […]): Cucumber plants (variety Bush Champion) were grown from seed in a soil-less peat-based potting mixture (Metromix) until the first true leaf was 20-80% expanded. Each pot contained 1 seedling. These plants were sprayed until wet with the formulated test compound. On the following day, the leaves were inoculated with an aqueous suspension of downy mildew sporangia and the plants were kept in high humidity for one day to permit sporangia to germinate and infect the leaf. The plants were then incubated in a growth chamber until disease developed on untreated control plants. […] The effectiveness of the test compounds at controlling disease when sprayed on leaves was determined by assessing the severity of disease on treated plants, then converting the severity to percent control based on the level of disease on untreated, inoculated plants. Data are the level (in percent) at which the given disease was controlled when the given compound was applied to the foliage of the plants at 200 ppm. In a few cases (noted in the table) the compound was applied to the plants at 75 ppm or 8.3 ppm.

For the next experiment, the system named is Cochliobolus sativus. The experiment can be described thus: Spot Blotch of Wheat (COCHSA), foliar spray, percent disease control.
[2] abbreviates: Bipolaris sorokiniana, foliar; read-out: COCHSA percent control.
Where [3] appears, read: Bipolaris sorokiniana; foliar spray; read-out: COCHSA percent control.

SMILES strings stand for the structures. Read-outs that look alike come from different tables or passages of the source.

On to `COc1nsc(Oc2ccc(CCNc3ncnc4nccnc34)cc2)n1` [Compound 21], for which the pest or weed control at 200 µg/mL with Colletotricum lagenarium (foliar) fell in the range of 50 to 79%; in experiment [1] (foliar), 50 to 79%; in the experiment on Cochliobolus sativus (setting [2]), 0 to 49%.
On to `CC(F)(F)c1ccnc(Oc2ccc(CCNc3ncnc4nccnc34)cc2F)c1` [Compound 193], for which the pest or weed control at 200 µg/mL with Colletotricum lagenarium (foliar) is 0 to 49%; in experiment [1] (foliar), 80 to 100%; in the experiment with Cochliobolus sativus (setting [2]), 0 to 49%.
Turning to `Oc1ccc(CCNc2ncnc3nccnc23)cc1Br` [Compound 211], the pest or weed control at 200 µg/mL (with Colletotricum lagenarium (foliar spray); in experiment [1] (foliar spray); in the experiment with Cochliobolus sativus (setting [3])) was 0 to 49% each time.
On to `COc1ccc(CCNc2ncnc3nccnc23)cc1F` [Compound 176], for which the pest or weed control at 200 µg/mL (with Colletotricum lagenarium (foliar); in experiment [1] (foliar); in the experiment on Cochliobolus sativus (setting [2])) was 0 to 49% throughout.
In the case of `Oc1cccc(CCNc2ncnc3nccnc23)c1` [Compound 20], the pest or weed control at 200 µg/mL (in the experiment on Colletotricum lagenarium (foliar); in experiment [1] (foliar); with Cochliobolus sativus (setting [2])) was 0 to 49% each time.
As for `Oc1ccc(CCNc2ncnc3nccnc23)cc1F` [Compound 177], the pest or weed control at 200 µg/mL (in the experiment on Colletotricum lagenarium (foliar); in experiment [1] (foliar); in the experiment with Cochliobolus sativus (setting [2])) was 0 to 49% each time.
For the molecule `CC(C)(C)OC(=O)N(CCc1ccc(O)cc1)c1ncnc2nccnc12` [Compound 217, [2-(4-Hydroxyphenyl)-ethyl]-pteridin-4-yl-carbamic acid tert-butyl Ester], the pest or weed control at 200 µg/mL in the experiment with Colletotricum lagenarium (foliar spray) was in the range of 0 to 49%; in experiment [1] (foliar spray), 50 to 79%; in the experiment with Cochliobolus sativus (setting [3]), 50 to 79%.
Turning to `COc1cc(C(F)(F)F)cc(Oc2ccc(CCNc3ncnc4nccnc34)cc2F)n1` [Compound 185], the pest or weed control at 200 µg/mL in the experiment with Colletotricum lagenarium (foliar) was in the range of 0 to 49%; in experiment [1] (foliar) it was 80 to 100%; in the experiment on Cochliobolus sativus (setting [2]), 0 to 49%.
With `CC(C)Cc1nnc(Oc2ccc(CCNc3ncnc4nccnc34)cc2)s1` [Compound 26], the pest or weed control at 200 µg/mL fell in the range of 0 to 49% in the experiment with Colletotricum lagenarium (foliar), 80 to 100% in experiment [1] (foliar) and 0 to 49% in the experiment on Cochliobolus sativus (setting [2]).
In the case of `FC(F)(F)c1cccnc1Oc1ccc(OCCNc2ncnc3nccnc23)cc1` [Compound 160], the values for the pest or weed control at 200 µg/mL (with Colletotricum lagenarium (foliar); in experiment [1] (foliar); in the experiment with Cochliobolus sativus (setting [2])) were 0 to 49%, 80 to 100% and 0 to 49%, respectively.
As for `COc1ccc(CCNc2ncnc3nccnc23)cc1Cl` [Compound 158], the pest or weed control at 200 µg/mL (in the experiment on Colletotricum lagenarium (foliar); in experiment [1] (foliar); in the experiment on Cochliobolus sativus (setting [2])) was 0 to 49% in each case.
In the case of `N#Cc1cc2ccccc2nc1Oc1ccc(CCNc2ncnc3nccnc23)cc1` [Compound 127], the pest or weed control at 200 µg/mL is 0 to 49% with Colletotricum lagenarium (foliar), 50 to 79% in experiment [1] (foliar) and 0 to 49% with Cochliobolus sativus (setting [2]).
As to `FC(F)(F)c1cc(Oc2ccc(CCNc3ncnc4nccnc34)cc2)nc(C(F)(F)F)c1` [Compound 115], the values for the pest or weed control at 200 µg/mL (in the experiment with Colletotricum lagenarium (foliar); in experiment [1] (foliar); in the experiment on Cochliobolus sativus (setting [2])) were 0 to 49%, 80 to 100% and 0 to 49%, respectively.
In the case of `Cc1c(CCNc2ncnc3nccnc23)ccc(Oc2cncc(Cl)c2C#N)c1C` [Compound 147], the pest or weed control at 200 µg/mL is 0 to 49% with Colletotricum lagenarium (foliar), 80 to 100% in experiment [1] (foliar) and 0 to 49% with Cochliobolus sativus (setting [2]).
In the case of `COc1ccc(CCNc2ncnc3nccnc23)c(F)c1` [Compound 62], the pest or weed control at 200 µg/mL in the experiment on Colletotricum lagenarium (foliar) is 0 to 49%; in experiment [1] (foliar) it was 80 to 100%; with Cochliobolus sativus (setting [2]), 0 to 49%.
In the case of `FC(F)(F)c1ccnc(Cl)c1Oc1ccc(CCNc2ncnc3nccnc23)cc1` [Compound 56], the pest or weed control at 200 µg/mL fell in the range of 0 to 49% in the experiment with Colletotricum lagenarium (foliar), 50 to 79% in experiment [1] (foliar) and 0 to 49% in the experiment on Cochliobolus sativus (setting [2]).
Regarding `Cc1c(CCNc2ncnc3nccnc23)ccc(Oc2c(F)cnc(C(F)(F)F)c2F)c1C` [Compound 149], the pest or weed control at 200 µg/mL in the experiment with Colletotricum lagenarium (foliar) was in the range of 0 to 49%; in experiment [1] (foliar) it was 80 to 100%; with Cochliobolus sativus (setting [2]), 0 to 49%.
For `COc1cc(C(F)(F)F)cc(Oc2ccc(CCNc3ncnc4nccnc34)cc2OC)n1` [Compound 178], the pest or weed control at 200 µg/mL (with Colletotricum lagenarium (foliar); in experiment [1] (foliar); in the experiment with Cochliobolus sativus (setting [2])) was 0 to 49% throughout.
As for `Oc1ccc(CCNc2ncnc3ncc(Cl)nc23)cc1` [Compound 73], the pest or weed control at 200 µg/mL (in the experiment on Colletotricum lagenarium (foliar); in experiment [1] (foliar); in the experiment on Cochliobolus sativus (setting [2])) was 0 to 49% each time.
With `CC(C)Oc1cc(CCNc2ncnc3nccnc23)ccc1Oc1cc(C(F)(F)F)ccn1` [Compound 180, {2-[3-(Isopropoxy)-4-(4-trifluoromethyl-pyridin-2-yloxy)-phenyl]-ethyl}-pteridin-4-ylamine], the pest or weed control at 200 µg/mL was in the range of 50 to 79% in the experiment on Colletotricum lagenarium (foliar), 80 to 100% in experiment [1] (foliar) and 0 to 49% with Cochliobolus sativus (setting [2]).
The matching figures for `COc1cc(C)c(CCNc2ncnc3nccnc23)cc1C` [Compound 151]: 0 to 49%, 80 to 100% and 0 to 49%.
The matching figures for `FC(F)(F)c1ccc(Oc2cccc(CCNc3ncnc4nccnc34)c2)nc1` [Compound 47]: 50 to 79%, 80 to 100% and 0 to 49%.
For `Fc1ccc(-c2ccc(CCNc3ncnc4nccnc34)cc2)cn1` [Compound 121, {2-[4-(6-Fluoropyridin-3-yl)-phenyl]-ethyl}-pteridin-4-yl-amine] the same measures were 0 to 49%, 80 to 100% and 0 to 49%.
In the case of `Oc1ccc(OCCNc2ncnc3nccnc23)cc1` [Compound 80], the pest or weed control at 200 µg/mL (in the experiment on Colletotricum lagenarium (foliar); in experiment [1] (foliar); in the experiment with Cochliobolus sativus (setting [2])) was 0 to 49% in each case.
Turning to `Cc1cnc2ncnc(NCCc3ccc(O)cc3)c2n1` [Compound 38], the pest or weed control at 200 µg/mL (in the experiment with Colletotricum lagenarium (foliar); in experiment [1] (foliar); in the experiment with Cochliobolus sativus (setting [2])) was 0 to 49% throughout.
For `CC(C)(C)[Si](C)(C)Oc1ccc(CCNc2ncnc3nccnc23)cc1` [Compound 133, {2-[4-(tert-Butyldimethylsilanyloxy)-phenyl]-ethyl}-pteridin-4-yl-amine], the pest or weed control at 200 µg/mL fell in the range of 0 to 49% in the experiment on Colletotricum lagenarium (foliar); 80 to 100% in experiment [1] (foliar); 0 to 49% with Cochliobolus sativus (Bipolaris sorokiniana, foliar, read-out: COCHSA percent control).
Turning to `CC(F)(F)c1ccnc(Oc2ccc(CCNc3ncnc4nccnc34)cc2O)c1` [Compound 197, 2-[4-(1,1-Difluoroethyl)-pyridin-2-yloxy]-5-[2-(pteridin-4-ylamino)-ethyl]-phenol], the results for the pest or weed control at 200 µg/mL (in the experiment with Colletotricum lagenarium (foliar); in experiment [1] (foliar); with Cochliobolus sativus (setting [2])) were 0 to 49%, 80 to 100% and 0 to 49%, respectively.
On to `CC(Nc1ncnc2nccnc12)c1ccc(O)cc1` (stereo not drawn) [Compound 65, 4-[1-(Pteridin-4-ylamino)-ethyl]-phenol], for which the pest or weed control at 200 µg/mL in the experiment on Colletotricum lagenarium (foliar) was in the range of 0 to 49%; in experiment [1] (foliar) it was 50 to 79%; in the experiment with Cochliobolus sativus (setting [2]), 0 to 49%.
In the case of `Brc1nsc(Oc2ccc(CCNc3ncnc4nccnc34)cc2)n1` [Compound 33], the pest or weed control at 200 µg/mL (in the experiment with Colletotricum lagenarium (foliar); in experiment [1] (foliar); in the experiment with Cochliobolus sativus (setting [2])) was 0 to 49% each time.
